Experimental data taken from ChEMBL document CHEMBL4190187, “Discovery of pyrazolopyrimidine derivatives as novel inhibitors of ataxia telangiectasia and rad3 related protein (ATR)” (Bioorg Med Chem Lett, 2017).

Columns and labels:
[1] = target: Casein kinase I isoform delta (Homo sapiens) (UniProt P48730); assay: Inhibition of recombinant human CK1delta (1 to 294 residues) at 1 uM using KRRRALS(p)VASLPGL as substrate after 40 mins in presence of [gamma-33P]ATP by scintillation counting method
[2] = target: Mitogen-activated protein kinase kinase kinase 9 (Homo sapiens) (UniProt P80192); assay: Inhibition of recombinant human MLK1 (134 to 414 residues) at 1 uM using casein as substrate after 40 mins in presence of [gamma-33P]ATP by scintillation counting method
[3] = target: Tyrosine-protein kinase JAK2 (Homo sapiens) (UniProt O60674); assay: Inhibition of recombinant human JAK2 (808 to end residues) at 1 uM using KTFCGTPEYLAPEVRREPRILSEEEQEMFRDFDYIADWC as substrate after 40 mins in presence of [gamma-33P]ATP by scintillation counting method
[4] = Half life in mouse at 10 mg/kg, po; format: ADME, organism-based; conditions: in vivo
[5] = target: Serine/threonine-protein kinase TBK1 (Homo sapiens) (UniProt Q9UHD2); assay: Inhibition of recombinant full-length human TBK1 at 1 uM using KRRRALS(p)VASLPGL as substrate after 40 mins in presence of [gamma-33P]ATP by scintillation counting method
[6] = target: Vascular endothelial growth factor receptor 2 (Homo sapiens) (UniProt P35968); assay: Inhibition of recombinant human KDR (790 to end residues) at 1 uM using myelin basic protein as substrate after 40 mins in presence of [gamma-33P]ATP by scintillation counting method
[7] = target: Tyrosine-protein kinase Lyn (Homo sapiens) (UniProt P07948); assay: Inhibition of recombinant full-length human Lyn at 1 uM using poly(Glu,Tyr) 4:1 as substrate after 40 mins in presence of [gamma-33P]ATP by scintillation counting method
[8] = target: Serine/threonine-protein kinase MAK (Homo sapiens) (UniProt P20794); assay: Inhibition of recombinant full-length human MAK at 1 uM using RRRFRPASPLRGPPK as substrate after 120 mins in presence of [gamma-33P]ATP by scintillation counting method
[9] = target: Tyrosine-protein kinase Blk (Mus musculus) (UniProt P16277); assay: Inhibition of recombinant full-length mouse Blk at 1 uM using poly(Glu,Tyr) 4:1 as substrate after 40 mins in presence of [gamma-33P]ATP by scintillation counting method
[10] = test system: Epidermal growth factor receptor (Homo sapiens), P00533 [L861Q]; assay: Inhibition of recombinant human EGFR L861Q mutant (696 to end residues) at 1 uM using poly(Glu,Tyr) 4:1 as substrate after 40 mins in presence of [gamma-33P]ATP by scintillation counting method
[11] = target: Vascular endothelial growth factor receptor 3 (Homo sapiens) (UniProt P35916); assay: Inhibition of recombinant human Flt4 (800 to end residues) at 1 uM using GGEEEEYFELVKKKK as substrate after 40 mins in presence of [gamma-33P]ATP by scintillation counting method
[12] = target: Calcium/calmodulin-dependent protein kinase kinase 2 (Homo sapiens) (UniProt Q96RR4); assay: Inhibition of recombinant full-length human CAMKK2 at 1 uM using […] after 40 mins in presence of [gamma-33P]ATP by scintillation counting method
[13] = target: BDNF/NT-3 growth factors receptor (Homo sapiens) (UniProt Q16620); assay: Inhibition of recombinant human TrkB (455 to end residues) at 1 uM using poly(Glu,Tyr) 4:1 as substrate after 40 mins in presence of [gamma-33P]ATP by scintillation counting method
[14] = target: PI3K p110 beta/p85 alpha (Homo sapiens) (UniProt P27986+P42338); assay: Inhibition of recombinant full-length human p110b/p85a at 1 uM using phosphatidylinositol 4,5-bisphosphate as substrate after 40 mins in presence of [gamma-33P]ATP by scintillation counting method; format: protein-complex assay
[15] = target: Protein-tyrosine kinase 6 (Homo sapiens) (UniProt Q13882); assay: Inhibition of recombinant full-length human BRK at 10 uM using poly(Glu,Tyr) 4:1 as substrate after 40 mins in presence of [gamma-33P]ATP by scintillation counting method
[16] = target: NT-3 growth factor receptor (Homo sapiens) (UniProt Q16288); assay: Inhibition of recombinant human TrkC (510 to end residues) at 1 uM using GEEPLYWSFPAKKK as substrate after 40 mins in presence of [gamma-33P]ATP by scintillation counting method
[17] = target: Ephrin type-A receptor 3 (Homo sapiens) (UniProt P29320); assay: Inhibition of recombinant human EPHA3 (578 to end residues) at 1 uM using poly(Glu,Tyr) 4:1 as substrate after 40 mins in presence of [gamma-33P]ATP by scintillation counting method
[18] = target: Dual specificity tyrosine-phosphorylation-regulated kinase 2 (Homo sapiens) (UniProt Q92630); assay: Inhibition of recombinant full-length human DYRK2 at 1 uM using casein as substrate after 40 mins in presence of [gamma-33P]ATP by scintillation counting method
[19] = target: PI3-kinase p110-delta/p85-alpha (Homo sapiens) (UniProt P27986+O00329); assay: Inhibition of recombinant full-length human p110d/p85a at 1 uM using phosphatidylinositol 4,5-bisphosphate as substrate after 40 mins in presence of [gamma-33P]ATP by scintillation counting method; format: protein-complex assay
[20] = target: Tyrosine-protein kinase JAK3 (Homo sapiens) (UniProt P52333); assay: Inhibition of recombinant human JAK3 (781 to end residues) at 1 uM using GGEEEEYFELVKKKK as substrate after 40 mins in presence of [gamma-33P]ATP by scintillation counting method
[21] = target: Activin receptor type-2A (Homo sapiens) (UniProt P27037); assay: Inhibition of recombinant human ACTR2 (162 to end residues) at 1 uM using casein as substrate after 120 mins in presence of [gamma-33P]ATP by scintillation counting method
[22] = target: Ribosomal protein S6 kinase alpha-3 (Homo sapiens) (UniProt P51812); assay: Inhibition of recombinant human Rsk2 (2 to end residues) at 1 uM using KKKNRTLSVA as substrate after 40 mins in presence of [gamma-33P]ATP by scintillation counting method
[23] = Metabolic stability in mouse liver microsomes assessed as compound remaining at 1 uM in presence of NADPH as cofactor measured after 30 mins by LC-MS/MS method; format: ADME, microsome; conditions: read-out: Stability
[24] = target: Tyrosine-protein kinase Mer (Homo sapiens) (UniProt Q12866); assay: Inhibition of recombinant human MER (557 to 882 residues) at 1 uM using GGMEDIYFEFMGGKKK as substrate after 40 mins in presence of [gamma-33P]ATP by scintillation counting method
[25] = target: Maternal embryonic leucine zipper kinase (Homo sapiens) (UniProt Q14680); assay: Inhibition of recombinant human MELK (1 to 340 residues) at 1 uM using KKLNRTLSFAEPG as substrate after 40 mins in presence of [gamma-33P]ATP by scintillation counting method
Chain of Maternal embryonic leucine zipper kinase (Homo sapiens) (Q14680 whole entry, looked up, the tested form may be a part): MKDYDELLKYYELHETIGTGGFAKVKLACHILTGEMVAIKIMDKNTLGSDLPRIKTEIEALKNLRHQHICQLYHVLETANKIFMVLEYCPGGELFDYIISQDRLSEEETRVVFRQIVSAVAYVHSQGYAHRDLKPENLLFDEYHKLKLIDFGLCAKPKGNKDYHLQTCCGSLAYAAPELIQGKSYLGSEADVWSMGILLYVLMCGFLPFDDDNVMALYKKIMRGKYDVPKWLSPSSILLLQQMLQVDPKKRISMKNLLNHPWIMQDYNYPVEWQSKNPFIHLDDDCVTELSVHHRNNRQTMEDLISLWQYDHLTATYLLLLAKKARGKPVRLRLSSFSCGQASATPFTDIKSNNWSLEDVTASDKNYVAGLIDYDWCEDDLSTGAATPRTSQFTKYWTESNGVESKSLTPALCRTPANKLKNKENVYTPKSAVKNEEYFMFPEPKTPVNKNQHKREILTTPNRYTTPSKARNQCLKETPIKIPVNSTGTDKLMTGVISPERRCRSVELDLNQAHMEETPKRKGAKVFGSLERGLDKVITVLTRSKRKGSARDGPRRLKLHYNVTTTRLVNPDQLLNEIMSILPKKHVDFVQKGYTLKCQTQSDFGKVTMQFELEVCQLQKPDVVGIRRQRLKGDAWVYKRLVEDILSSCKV

Chain of Mitogen-activated protein kinase kinase kinase 9 (Homo sapiens) (P80192 whole entry, looked up, the tested form may be a part): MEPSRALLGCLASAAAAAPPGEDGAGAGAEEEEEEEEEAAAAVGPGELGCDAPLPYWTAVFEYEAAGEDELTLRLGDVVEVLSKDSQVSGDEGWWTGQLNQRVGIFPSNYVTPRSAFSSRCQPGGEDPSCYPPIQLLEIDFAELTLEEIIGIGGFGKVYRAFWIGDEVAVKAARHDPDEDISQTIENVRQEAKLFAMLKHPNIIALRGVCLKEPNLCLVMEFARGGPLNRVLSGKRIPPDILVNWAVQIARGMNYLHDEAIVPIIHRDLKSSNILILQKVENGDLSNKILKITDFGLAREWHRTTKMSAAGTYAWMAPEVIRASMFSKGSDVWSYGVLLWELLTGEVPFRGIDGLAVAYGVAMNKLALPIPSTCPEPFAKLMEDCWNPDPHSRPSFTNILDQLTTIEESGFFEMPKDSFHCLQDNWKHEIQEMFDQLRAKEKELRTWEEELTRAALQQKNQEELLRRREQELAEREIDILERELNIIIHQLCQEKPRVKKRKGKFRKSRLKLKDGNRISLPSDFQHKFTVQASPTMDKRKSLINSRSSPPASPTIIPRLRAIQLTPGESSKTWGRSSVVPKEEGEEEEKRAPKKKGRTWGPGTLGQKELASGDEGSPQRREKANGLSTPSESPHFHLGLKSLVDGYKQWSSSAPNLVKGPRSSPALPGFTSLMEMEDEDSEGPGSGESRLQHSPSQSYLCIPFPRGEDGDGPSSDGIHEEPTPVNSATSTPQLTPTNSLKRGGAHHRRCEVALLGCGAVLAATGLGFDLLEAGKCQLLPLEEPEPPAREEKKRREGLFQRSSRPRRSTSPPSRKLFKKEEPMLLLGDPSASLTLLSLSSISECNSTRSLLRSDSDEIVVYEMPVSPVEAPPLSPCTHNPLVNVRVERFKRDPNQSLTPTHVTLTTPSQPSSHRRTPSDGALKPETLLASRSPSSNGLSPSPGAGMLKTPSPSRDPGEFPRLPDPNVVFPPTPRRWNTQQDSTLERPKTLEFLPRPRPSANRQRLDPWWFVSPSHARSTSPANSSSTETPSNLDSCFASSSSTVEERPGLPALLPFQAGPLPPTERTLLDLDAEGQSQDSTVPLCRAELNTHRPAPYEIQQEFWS
Chain of Protein-tyrosine kinase 6 (Homo sapiens) (Q13882 whole entry, looked up): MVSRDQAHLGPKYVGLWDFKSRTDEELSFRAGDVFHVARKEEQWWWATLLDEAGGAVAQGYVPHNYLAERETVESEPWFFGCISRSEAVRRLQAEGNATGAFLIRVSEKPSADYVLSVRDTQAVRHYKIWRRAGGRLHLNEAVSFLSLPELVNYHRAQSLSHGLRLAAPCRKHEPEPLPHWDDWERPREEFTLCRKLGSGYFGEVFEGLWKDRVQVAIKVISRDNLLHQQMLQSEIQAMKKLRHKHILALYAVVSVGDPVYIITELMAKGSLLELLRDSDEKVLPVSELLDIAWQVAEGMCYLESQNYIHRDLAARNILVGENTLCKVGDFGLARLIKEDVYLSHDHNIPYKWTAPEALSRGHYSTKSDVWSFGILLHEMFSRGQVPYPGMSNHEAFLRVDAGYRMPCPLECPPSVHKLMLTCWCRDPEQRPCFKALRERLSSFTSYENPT
Chain of Serine/threonine-protein kinase TBK1 (Homo sapiens) (Q9UHD2 whole entry): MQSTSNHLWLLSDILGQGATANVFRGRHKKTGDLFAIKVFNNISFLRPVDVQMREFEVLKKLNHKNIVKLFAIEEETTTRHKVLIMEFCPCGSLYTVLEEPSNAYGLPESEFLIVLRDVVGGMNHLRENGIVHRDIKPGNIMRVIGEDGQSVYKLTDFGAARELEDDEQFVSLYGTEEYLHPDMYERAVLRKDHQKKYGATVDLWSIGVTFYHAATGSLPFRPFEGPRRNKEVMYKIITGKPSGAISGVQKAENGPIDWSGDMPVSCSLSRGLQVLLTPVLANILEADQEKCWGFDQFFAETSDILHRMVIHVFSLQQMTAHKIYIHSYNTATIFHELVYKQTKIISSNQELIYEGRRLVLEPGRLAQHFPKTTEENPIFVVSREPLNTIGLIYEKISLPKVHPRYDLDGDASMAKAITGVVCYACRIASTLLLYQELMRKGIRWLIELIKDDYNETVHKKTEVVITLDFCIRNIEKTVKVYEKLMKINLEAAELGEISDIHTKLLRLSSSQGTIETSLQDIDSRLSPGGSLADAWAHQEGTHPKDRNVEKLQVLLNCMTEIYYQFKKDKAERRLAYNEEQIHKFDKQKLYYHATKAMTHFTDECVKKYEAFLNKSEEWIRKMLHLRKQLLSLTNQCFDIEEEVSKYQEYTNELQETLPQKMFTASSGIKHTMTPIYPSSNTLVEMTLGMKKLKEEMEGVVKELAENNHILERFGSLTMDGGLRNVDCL
Chain of BDNF/NT-3 growth factors receptor (Homo sapiens) (Q16620 32-822 limits assumed): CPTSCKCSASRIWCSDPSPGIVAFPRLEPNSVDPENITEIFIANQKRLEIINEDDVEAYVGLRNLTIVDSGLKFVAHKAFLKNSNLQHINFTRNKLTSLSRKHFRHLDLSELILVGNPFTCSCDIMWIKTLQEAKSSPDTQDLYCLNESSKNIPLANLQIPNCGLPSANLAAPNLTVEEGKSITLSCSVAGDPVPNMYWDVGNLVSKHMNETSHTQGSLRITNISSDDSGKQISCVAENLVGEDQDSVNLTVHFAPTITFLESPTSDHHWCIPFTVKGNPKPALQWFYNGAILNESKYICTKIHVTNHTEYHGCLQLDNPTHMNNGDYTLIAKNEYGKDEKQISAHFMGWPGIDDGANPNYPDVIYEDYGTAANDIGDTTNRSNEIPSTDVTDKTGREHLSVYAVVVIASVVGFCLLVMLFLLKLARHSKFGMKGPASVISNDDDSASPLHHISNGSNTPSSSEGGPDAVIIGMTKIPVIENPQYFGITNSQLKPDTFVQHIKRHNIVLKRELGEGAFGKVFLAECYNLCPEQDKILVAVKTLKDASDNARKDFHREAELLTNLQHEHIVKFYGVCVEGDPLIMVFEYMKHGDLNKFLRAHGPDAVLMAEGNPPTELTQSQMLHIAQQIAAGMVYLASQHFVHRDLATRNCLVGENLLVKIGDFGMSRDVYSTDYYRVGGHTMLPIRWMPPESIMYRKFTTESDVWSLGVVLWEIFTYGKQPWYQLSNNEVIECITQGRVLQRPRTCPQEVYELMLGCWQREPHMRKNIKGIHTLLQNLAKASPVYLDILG
Chain of Serine/threonine-protein kinase MAK (Homo sapiens) (P20794 whole entry): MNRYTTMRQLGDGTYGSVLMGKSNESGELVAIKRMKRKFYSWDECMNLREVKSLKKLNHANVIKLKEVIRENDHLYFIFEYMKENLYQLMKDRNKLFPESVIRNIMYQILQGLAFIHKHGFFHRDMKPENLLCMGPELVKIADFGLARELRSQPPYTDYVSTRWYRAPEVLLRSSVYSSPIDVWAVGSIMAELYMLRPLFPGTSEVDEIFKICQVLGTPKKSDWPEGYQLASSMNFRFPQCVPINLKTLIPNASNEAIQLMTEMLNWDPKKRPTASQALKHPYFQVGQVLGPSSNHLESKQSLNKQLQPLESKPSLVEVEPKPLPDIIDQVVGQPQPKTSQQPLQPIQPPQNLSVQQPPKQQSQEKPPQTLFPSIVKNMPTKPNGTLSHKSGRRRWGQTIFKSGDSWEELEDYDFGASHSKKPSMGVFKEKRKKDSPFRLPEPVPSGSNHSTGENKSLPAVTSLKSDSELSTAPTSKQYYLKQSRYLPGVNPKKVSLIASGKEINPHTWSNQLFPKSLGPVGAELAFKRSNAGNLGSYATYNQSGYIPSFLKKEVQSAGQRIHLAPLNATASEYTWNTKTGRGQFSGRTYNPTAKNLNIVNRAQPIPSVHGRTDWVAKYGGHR
Chain of Tyrosine-protein kinase Blk (Mus musculus) (P16277 whole entry): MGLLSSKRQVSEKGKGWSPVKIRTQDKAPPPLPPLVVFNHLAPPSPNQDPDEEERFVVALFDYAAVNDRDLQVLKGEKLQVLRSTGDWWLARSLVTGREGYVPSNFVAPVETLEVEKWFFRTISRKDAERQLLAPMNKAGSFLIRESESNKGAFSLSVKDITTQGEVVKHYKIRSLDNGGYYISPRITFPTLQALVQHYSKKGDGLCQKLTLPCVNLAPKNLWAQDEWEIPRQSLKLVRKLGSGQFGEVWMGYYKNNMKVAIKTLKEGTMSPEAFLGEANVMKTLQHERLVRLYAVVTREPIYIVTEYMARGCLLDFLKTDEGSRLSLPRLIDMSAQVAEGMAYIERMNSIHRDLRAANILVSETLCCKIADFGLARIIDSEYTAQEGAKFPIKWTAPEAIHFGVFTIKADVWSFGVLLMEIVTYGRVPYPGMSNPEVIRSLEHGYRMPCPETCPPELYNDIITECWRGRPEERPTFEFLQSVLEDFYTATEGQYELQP

Work on `CS(=O)(=O)c1ccc(-n2nc(-c3cnc4[nH]ccc4c3)c3c(N)ncnc32)cc1` yielded an inhibition [1] of 66%, an inhibition [2] of 13% and an inhibition [3] of 5%. The half-life [4] was 2.28 h, the inhibition [5] was -4% and the inhibition [6] was 72%. It also gave an inhibition [7] of 40%, an inhibition [8] of 2% and an inhibition [9] of 12%. It also gave an inhibition [10] of 31%, an inhibition [11] of 91% and an inhibition [12] of -4%. It also gave an inhibition [13] of 4%, an inhibition [14] of 0% and an inhibition [15] of 102%. It also gave an inhibition [16] of 2%, an inhibition [17] of 7% and an inhibition [18] of -10%. The inhibition [19] was 42%, the inhibition [20] was 4% and the inhibition [21] was 6%. For the same compound, the inhibition [22] was -5%, the remaining at 0.5 h, 1 µM [23] was 79% and the inhibition [24] was -3%. For the same compound, the inhibition [25] was 28%.
